# Reference: patent US8815872B2, “Macrocyclics pyrimidines as aurora kinase inhibitors” (Merck Patent GmbH, priority 2008, dated 2014)
# Columns and labels:
# Assay in all cases: Other kinases, single-concentration inhibition (Table 3)
# Assay type in all cases: biochemical
# NEK2(h) = target: T1, NEK2(h) (Homo sapiens, UniProt P51955)
# T1 construct: purchased Caliper Life Sciences
# T1 sequence (P51955 1-445): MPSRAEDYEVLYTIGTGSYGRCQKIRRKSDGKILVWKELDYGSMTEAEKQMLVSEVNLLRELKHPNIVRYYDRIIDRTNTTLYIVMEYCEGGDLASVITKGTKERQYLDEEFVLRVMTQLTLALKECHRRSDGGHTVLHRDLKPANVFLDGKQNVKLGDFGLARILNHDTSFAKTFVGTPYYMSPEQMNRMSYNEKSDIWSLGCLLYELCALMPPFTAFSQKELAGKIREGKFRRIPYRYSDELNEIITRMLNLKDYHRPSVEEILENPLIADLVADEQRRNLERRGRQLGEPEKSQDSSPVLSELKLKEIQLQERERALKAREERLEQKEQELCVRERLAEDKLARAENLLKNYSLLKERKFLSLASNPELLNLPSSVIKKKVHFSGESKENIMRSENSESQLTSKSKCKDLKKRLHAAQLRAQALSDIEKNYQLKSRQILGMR
# Protocol: (§1) The Aurora and other kinase assays described here were performed on two Caliper Life Sciences systems, the LC3000 and the Desktop Profiler. These provide data on enzyme activity via measurement of the relative amounts of phosphorylated or unphosphorylated fluorescently labelled substrate peptide at the end of an enzymatic reaction. These different states of peptide are resolved by applying a potential difference across the sample. The presence of a charged phosphate group on the product (as opposed to the substrate) causes a different peptide mobility between the two peptides. This is visualized by excitation of a fluorescent label on the substrate and product peptides and represented as peaks within the analysis software.
# (§2) The Desktop Profiler utilizes the same principal as the LC 3000 for calculating percentage conversion of a substrate to product. Caliper Life Sciences provided proprietary flash frozen pre-made 384 well plates containing selected kinases. Each column in the 384 well plate contained a particular selected kinase. A second plate, the ‘substrate plate’ contained a mix of fluorescently labeled peptide substrate and ATP. These were arranged in columns so that transfer for substrate plate to enzyme plate provided the correct enzyme with the correct substrate/ATP concentration.
# (§3) Compounds were added to a thawed enzyme plate in the desired format, in single concentrations. Reactions were initiated by transfer of the ubstrate/ATP mix from the substrate plate. The enzyme plate was incubated for 90 mins at 25 °C. The reaction was stopped by addition of […] of Stop Buffer (100 mM HEPES pH 7.5, 0.015% Brij-35, 10 mM EDTA (Sigma, E7889)).
# (§4) Plates were read in a manner identical to that of the LC3000, and the ratio between substrate and product peaks provided the activity of the enzyme in that well. This was best represented by a plate heat map which colors each well by percent inhibition as compared to positive and negative controls (no inhibitors and no ATP respectively).
# cKit(D816V)(h) = target: T2, cKit(D816V)(h) (Homo sapiens, UniProt P10721, D816V)
# T2 construct: purchased Caliper Life Sciences
# Protocol: as §1, §2, §3, §4
# Tie2(h) = target: T3, Tie2(h) (Homo sapiens, UniProt Q02763)
# T3 construct: purchased Caliper Life Sciences
# Protocol: as §1, §2, §3, §4
# ZAP-70(h) = target: T4, ZAP-70(h) (Homo sapiens, UniProt P43403)
# T4 construct: purchased Caliper Life Sciences
# T4 sequence (P43403 1-619): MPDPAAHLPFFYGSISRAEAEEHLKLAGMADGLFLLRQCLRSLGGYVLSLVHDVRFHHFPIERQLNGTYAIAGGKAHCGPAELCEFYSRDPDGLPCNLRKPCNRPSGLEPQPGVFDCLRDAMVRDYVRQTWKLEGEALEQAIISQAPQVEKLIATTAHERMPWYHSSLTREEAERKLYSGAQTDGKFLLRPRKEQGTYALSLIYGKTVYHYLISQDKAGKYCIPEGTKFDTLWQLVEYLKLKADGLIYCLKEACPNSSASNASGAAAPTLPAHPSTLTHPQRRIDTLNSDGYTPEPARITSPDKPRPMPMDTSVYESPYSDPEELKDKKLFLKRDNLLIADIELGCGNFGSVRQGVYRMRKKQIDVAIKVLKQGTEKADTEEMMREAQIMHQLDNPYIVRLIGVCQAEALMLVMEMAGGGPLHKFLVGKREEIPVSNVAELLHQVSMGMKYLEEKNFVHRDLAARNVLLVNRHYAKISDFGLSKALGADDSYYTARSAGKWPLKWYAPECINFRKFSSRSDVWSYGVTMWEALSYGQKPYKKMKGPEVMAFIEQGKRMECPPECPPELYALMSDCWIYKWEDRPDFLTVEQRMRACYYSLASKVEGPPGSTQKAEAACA
# Protocol: as §1, §2, §3, §4
# Abl(h) = target: T5, Abl(h) (Homo sapiens, UniProt P00519)
# T5 construct: purchased Caliper Life Sciences
# Protocol: as §1, §2, §3, §4
# PDK1(h) = target: T6, PDK1(h) (Homo sapiens, UniProt O15530)
# T6 construct: purchased Caliper Life Sciences
# T6 sequence (O15530 1-556): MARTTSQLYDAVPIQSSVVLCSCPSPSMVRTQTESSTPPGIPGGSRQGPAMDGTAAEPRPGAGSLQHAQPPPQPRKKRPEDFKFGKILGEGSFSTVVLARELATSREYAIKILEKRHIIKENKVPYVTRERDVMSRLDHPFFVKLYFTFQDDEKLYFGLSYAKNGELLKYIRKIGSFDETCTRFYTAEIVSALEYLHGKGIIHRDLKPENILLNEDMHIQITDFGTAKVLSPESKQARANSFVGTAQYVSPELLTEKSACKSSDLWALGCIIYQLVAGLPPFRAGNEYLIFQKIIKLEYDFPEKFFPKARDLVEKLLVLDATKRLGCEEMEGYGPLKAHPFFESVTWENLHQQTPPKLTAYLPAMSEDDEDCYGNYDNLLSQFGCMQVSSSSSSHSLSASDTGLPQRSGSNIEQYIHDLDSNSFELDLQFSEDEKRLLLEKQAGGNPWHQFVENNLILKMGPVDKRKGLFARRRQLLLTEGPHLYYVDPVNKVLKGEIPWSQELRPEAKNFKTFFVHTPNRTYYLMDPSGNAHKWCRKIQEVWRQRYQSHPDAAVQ
# Protocol: as §1, §2, §3, §4
# Tie2(R849W)(h) = target: T7, Tie2(R849W)(h) (Homo sapiens, UniProt Q02763, R849W)
# T7 construct: purchased Caliper Life Sciences
# Protocol: as §1, §2, §3, §4
# TrkA(h) = target: T8, TrkA(h) (Homo sapiens, UniProt P04629)
# T8 construct: purchased Caliper Life Sciences
# Protocol: as §1, §2, §3, §4
# TrkB(h) = target: T9, TrkB(h) (Homo sapiens, UniProt Q16620)
# T9 construct: purchased Caliper Life Sciences
# Protocol: as §1, §2, §3, §4
# T5 sequence (P00519 whole entry): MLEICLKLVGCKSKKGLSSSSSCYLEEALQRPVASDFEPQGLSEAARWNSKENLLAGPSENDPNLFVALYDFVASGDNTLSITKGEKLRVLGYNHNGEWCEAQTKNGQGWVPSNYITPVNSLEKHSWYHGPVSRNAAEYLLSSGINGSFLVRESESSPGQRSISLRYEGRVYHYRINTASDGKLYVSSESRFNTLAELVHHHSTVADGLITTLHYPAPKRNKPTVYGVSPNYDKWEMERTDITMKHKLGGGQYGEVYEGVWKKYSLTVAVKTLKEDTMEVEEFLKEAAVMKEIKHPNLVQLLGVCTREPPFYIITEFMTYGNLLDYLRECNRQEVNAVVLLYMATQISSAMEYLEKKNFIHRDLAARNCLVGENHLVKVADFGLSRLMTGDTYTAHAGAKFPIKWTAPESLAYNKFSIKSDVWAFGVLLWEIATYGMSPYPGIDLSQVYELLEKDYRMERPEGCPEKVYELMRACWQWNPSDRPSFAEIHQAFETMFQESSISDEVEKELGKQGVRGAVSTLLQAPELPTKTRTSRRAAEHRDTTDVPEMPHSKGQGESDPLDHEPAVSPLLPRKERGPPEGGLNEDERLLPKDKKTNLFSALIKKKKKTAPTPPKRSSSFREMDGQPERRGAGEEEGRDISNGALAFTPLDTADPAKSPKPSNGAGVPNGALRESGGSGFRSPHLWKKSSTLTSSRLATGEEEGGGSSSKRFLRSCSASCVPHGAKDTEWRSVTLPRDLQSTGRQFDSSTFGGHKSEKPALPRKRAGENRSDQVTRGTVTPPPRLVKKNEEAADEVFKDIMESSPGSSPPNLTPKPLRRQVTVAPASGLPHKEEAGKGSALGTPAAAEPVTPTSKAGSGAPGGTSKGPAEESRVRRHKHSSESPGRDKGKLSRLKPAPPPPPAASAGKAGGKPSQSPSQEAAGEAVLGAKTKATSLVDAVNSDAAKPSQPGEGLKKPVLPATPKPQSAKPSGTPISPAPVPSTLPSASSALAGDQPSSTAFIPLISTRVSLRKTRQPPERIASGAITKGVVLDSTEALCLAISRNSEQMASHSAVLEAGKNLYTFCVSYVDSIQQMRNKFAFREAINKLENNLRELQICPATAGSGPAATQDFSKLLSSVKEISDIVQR
# T9 sequence (Q16620 32-822): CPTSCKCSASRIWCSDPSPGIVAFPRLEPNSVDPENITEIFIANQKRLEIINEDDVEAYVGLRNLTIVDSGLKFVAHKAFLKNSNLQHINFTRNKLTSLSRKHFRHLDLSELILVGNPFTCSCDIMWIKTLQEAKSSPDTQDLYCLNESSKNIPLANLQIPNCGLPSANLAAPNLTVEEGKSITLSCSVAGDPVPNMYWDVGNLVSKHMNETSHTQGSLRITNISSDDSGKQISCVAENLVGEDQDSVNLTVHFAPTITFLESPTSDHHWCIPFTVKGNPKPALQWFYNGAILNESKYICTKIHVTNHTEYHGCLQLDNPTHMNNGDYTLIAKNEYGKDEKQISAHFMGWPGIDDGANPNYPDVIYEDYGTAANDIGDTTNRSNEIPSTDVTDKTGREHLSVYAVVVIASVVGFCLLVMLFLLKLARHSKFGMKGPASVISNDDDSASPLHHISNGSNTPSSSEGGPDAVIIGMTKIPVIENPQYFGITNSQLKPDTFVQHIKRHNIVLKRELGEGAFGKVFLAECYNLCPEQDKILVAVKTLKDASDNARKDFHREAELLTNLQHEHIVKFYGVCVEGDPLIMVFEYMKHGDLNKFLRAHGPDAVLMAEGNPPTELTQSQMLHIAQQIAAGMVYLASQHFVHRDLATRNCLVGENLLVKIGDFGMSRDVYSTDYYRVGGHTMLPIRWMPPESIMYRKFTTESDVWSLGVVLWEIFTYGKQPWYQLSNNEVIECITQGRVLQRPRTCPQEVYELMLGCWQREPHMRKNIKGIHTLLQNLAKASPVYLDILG
# T2 sequence (P10721 26-976 D816V): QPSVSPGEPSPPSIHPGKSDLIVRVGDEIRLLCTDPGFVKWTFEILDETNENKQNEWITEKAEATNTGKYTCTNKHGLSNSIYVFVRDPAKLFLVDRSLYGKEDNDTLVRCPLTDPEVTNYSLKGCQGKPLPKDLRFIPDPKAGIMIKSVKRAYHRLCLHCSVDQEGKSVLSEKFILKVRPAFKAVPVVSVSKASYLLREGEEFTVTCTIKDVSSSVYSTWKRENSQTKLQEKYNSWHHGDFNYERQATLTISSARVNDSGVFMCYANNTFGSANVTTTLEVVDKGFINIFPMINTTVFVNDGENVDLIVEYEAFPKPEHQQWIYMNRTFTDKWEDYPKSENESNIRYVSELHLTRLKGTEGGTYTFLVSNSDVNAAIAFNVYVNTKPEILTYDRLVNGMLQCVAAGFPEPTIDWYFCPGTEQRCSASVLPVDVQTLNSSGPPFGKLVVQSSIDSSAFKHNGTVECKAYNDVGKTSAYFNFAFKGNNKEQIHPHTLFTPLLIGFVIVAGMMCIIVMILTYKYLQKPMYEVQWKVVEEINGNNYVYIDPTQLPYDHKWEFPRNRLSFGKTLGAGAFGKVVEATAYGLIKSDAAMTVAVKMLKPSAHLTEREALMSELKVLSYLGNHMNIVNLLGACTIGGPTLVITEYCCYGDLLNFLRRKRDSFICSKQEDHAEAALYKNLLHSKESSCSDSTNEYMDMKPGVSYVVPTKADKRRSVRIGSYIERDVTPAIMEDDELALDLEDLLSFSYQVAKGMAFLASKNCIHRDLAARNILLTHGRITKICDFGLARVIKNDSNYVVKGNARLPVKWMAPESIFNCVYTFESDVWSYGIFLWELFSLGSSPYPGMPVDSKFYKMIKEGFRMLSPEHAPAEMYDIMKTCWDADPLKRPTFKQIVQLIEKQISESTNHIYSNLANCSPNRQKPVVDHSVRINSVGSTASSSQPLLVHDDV
# T3 sequence (Q02763 23-1124): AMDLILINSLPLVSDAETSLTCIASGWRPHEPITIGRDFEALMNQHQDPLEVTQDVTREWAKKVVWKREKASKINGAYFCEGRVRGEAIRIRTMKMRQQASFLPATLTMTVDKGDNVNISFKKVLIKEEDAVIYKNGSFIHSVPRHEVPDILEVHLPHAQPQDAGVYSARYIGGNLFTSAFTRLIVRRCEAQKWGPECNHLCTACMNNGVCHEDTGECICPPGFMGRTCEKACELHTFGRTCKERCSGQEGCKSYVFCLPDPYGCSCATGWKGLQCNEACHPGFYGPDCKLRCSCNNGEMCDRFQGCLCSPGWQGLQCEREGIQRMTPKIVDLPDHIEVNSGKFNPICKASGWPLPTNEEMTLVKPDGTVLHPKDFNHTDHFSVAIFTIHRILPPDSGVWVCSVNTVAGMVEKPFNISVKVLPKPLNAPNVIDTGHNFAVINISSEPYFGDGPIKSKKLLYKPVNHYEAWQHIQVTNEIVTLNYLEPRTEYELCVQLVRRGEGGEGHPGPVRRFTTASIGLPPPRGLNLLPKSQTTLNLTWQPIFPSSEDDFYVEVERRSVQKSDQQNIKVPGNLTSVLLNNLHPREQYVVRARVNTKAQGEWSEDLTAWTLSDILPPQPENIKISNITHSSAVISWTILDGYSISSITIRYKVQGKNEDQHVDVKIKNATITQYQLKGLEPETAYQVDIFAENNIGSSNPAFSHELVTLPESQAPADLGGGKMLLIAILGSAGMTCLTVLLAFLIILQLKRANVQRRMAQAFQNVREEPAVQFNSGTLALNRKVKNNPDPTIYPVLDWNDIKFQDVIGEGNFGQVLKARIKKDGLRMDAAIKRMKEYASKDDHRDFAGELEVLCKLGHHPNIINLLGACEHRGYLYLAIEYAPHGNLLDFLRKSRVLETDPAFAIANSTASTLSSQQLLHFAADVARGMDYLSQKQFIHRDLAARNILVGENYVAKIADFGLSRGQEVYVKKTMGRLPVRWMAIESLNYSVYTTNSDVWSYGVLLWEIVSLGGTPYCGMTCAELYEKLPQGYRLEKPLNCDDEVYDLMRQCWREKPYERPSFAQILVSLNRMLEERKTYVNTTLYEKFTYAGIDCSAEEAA
# T8 sequence (P04629 33-796): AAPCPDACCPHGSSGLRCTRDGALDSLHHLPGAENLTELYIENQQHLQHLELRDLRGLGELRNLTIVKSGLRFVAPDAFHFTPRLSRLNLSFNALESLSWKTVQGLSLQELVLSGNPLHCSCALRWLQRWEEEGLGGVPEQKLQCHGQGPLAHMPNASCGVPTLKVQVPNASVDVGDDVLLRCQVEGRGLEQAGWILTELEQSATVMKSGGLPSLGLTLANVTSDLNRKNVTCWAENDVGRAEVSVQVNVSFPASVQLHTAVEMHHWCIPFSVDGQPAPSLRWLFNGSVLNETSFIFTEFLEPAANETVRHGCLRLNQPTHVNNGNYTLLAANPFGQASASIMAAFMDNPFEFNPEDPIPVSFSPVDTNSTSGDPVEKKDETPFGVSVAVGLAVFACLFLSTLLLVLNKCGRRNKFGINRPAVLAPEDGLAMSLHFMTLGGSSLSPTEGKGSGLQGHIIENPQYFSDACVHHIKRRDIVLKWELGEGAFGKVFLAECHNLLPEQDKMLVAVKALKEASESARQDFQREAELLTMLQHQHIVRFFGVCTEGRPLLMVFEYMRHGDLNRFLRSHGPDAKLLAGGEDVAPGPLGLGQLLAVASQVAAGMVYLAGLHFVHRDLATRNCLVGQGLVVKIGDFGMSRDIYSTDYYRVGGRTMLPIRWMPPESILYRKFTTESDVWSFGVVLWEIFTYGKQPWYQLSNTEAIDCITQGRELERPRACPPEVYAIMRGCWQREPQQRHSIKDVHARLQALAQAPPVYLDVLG
# T7 sequence (Q02763 23-1124 R849W): as the sequence (Q02763 23-1124) above, with R827W counted along it
Structure (SMILES),% inhibition NEK2(h) (NEK2(h); 10 μM),% inhibition cKit(D816V)(h) (cKit(D816V)(h); 10 μM),% inhibition Tie2(h) (Tie2(h); 10 μM),% inhibition ZAP-70(h) (ZAP-70(h); 10 μM),inhibition at 10 µM (Abl(h); 10 μM),% inhibition PDK1(h) (PDK1(h); 10 μM),% inhibition Tie2(R849W)(h) (Tie2(R849W)(h); 10 μM),% inhibition TrkA(h) (TrkA(h); 10 μM),% inhibition TrkB(h) (TrkB(h); 10 μM),% inhibition NEK2(h) (NEK2(h); 1 μM),% inhibition cKit(D816V)(h) (cKit(D816V)(h); 1 μM),% inhibition Tie2(h) (Tie2(h); 1 μM),inhibition at 1 µM (Abl(h)),% inhibition PDK1(h) (PDK1(h); 1 μM),% inhibition Tie2(R849W)(h) (Tie2(R849W)(h); 1 μM),% inhibition TrkA(h) (TrkA(h); 1 μM),% inhibition TrkB(h) (TrkB(h); 1 μM),% inhibition ZAP-70(h) (ZAP-70(h); 1 μM)
O=C(O)[C@H]1[C@H]2C[C@H]3[C@H]1Nc1nc(ncc1F)Nc1cccc(c1)OCCS[C@@H]3C2 [Example 21],92%,104%,33%,94%,44%,78%,35%,15%,18%,,,,,,,,,
CN1CCN(c2ccc3cc2OCCS[C@@H]2C[C@@H]4C[C@H]2[C@@H](Nc2nc(ncc2F)N3)[C@H]4C(N)=O)CC1 [Example 22],,,,,,,,,,96%,112%,46%,-4%,112%,57%,−1%,14%,
NC(=O)[C@H]1[C@H]2C[C@H]3[C@H]1Nc1nc(ncc1F)Nc1cccc(c1)CSS[C@@H]3C2 [Example 10],,,,,,,,,,49%,96%,101%,101%,96%,41%,0%,1%,118%
"C=C[C@@H]1C[C@@H]2/C=C/COc3cccc(c3)Nc3ncc(F)c(n3)N[C@H]2[C@H]1C(N)=O (single isomer, unassigned) [Example 3]",,,,,,,,,,95%,77%,99%,105%,102%,93%,58%,83%,109%
"CC[C@@H]1C[C@@H]2/C=C\COc3cccc(c3)Nc3ncc(F)c(n3)N[C@H]2[C@H]1C(N)=O (single isomer, unassigned) [Example 6]",,,,,,,,,,107%,96%,119%,99%,90%,91%,50%,90%,125%
